Usually IC50 stands for the concentration that gives 50% inhibition.

Each structure is given as a SMILES string.

The test is described as follows: Inhibition of calcium channel.

For `COc1ccc([C@@H]2Sc3ccccc3N(CCN(C)CCc3ccc(OC)c(OC)c3)C(=O)[C@@H]2OC(C)=O)cc1`, the IC50 turned out to be 6.5 nM. On to `COc1ccc([C@@H]2Sc3ccccc3N(CCN(C)C)C(=O)[C@@H]2OC(C)=O)cc1` [DILTIAZEM], for which the IC50 worked out at 337 nM.

These data come from ChEMBL document CHEMBL1154483, “Mechanistic aspects of benzothiazepines: a class of antiarrhythmic drugs” (Eur J Med Chem, 2009).
